Measured values reported in patent publication US7138361B2, “Herbicidal heterocycles” (E. I. du Pont de Nemours and Company, priority 2000, dated 2006).

Legend:
Assay in all cases: Test D greenhouse paddy-water test in rice
Format in all cases: in vivo
Details in all cases: 500 g/ha alone, 21 days, 0-100 scale
[1] = test system: Alisma plantago-aquatica (Ap)
Excerpt: (§1) Four plastic pots (ca. 16-cm diameter) per rate were partially filled with sterilized Tama silt loam soil comprised of a 35:50:15 ratio of sand, silt and clay and 2.6% organic matter. Separate plantings for each of the four pots were as follows. Seeds from the U.S. of Heteranthera limosa (Hl), Monochoria vaginalis (Mv), Ammania auriculata (Aa), and Sphenoclea zeylanica (Sz) were planted into one 16-cm pot for each rate. Seeds from the U.S. of Cyperus iria (Ci), Leptochloa fascicularis (Li), one stand of 9 or 10 direct-seeded rice seedlings (Oryza saliva cv. ‘Japonica—M202’; Oss), and one stand of 6 transplanted rice seedlings (Oryza sativa cv. ‘Japonica—M202’; Ost) were planted into one 16-cm pot for each rate. Seeds from the U.S. of Cyperus difformis (Cd), Alisma plantago-aquatica (Ap), and Scirpus mucronatus (Sm) were planted into one 16-cm pot for each rate. Seeds from the U.S. of Echinochloa crus-galli (Ecg), Echinochloa oryzicola (Eor), Echinochloa oryzoides (Eoz) and Echinochloa colonum (Ecc) were planted into one 16-cm pot for each rate. Plantings were sequential so that crop and weed species were at the 2.0 to 2.5-leaf stage at time of treatment.
(§2) Potted plants were grown in a greenhouse with day/night temperature settings of 29.5/26.7° C., and supplemental balanced lighting was provided to maintain a 16-hour photoperiod. Test pots were maintained in the greenhouse until test completion.
(§3) Chemical treatments consisting of Compound 1 of Index Table A (Cmpd 1), daimuron (Cmpd D), quinoclamine (Cmpd Q) and combinations thereof were formulated in acetone. At time of treatment, test pots were flooded to 3 cm above the soil surface, treated by application of test compounds directly to the paddy water, and then maintained at that water depth for the duration of the test. Effects of treatments on rice and weeds were visually evaluated by comparison to untreated controls after 21 days. Plant response ratings are reported on a 0 to 100 scale; where 0 is no effect and 100 is complete control. ND means no data.
(§4) Colby's equation was used to calculate the expected additive herbicidal effect of the mixtures of Compound 1 with daimuron (Cmpd D) and quinoclamine (Cmpd Q). Colby's equation (Colby, S. R “Calculating Synergistic and Antagonistic Responses of Herbicide Combinations,” Weeds, 15(1), pp 20–22 (1967)) calculates the expected additive effect of herbicidal mixtures, and for two active ingredients is of the form: Pa+b=Pa+Pb−(PaPb/100) wherein Pa+b is the percentage effect of the mixture expected from additive contribution of the individual components, • Pa is the observed percentage effect of the first active ingredient at the same use rate as in the mixture, and • Pb is the observed percentage effect of the second active ingredient at the same use rate as in the mixture.

Ammania auriculata (Aa) = test system: Ammania auriculata (Aa)
Excerpt: as §1, §2, §3, §4

Cyperus difformis (Cd) = test system: Cyperus difformis (Cd)
Excerpt: as §1, §2, §3, §4

Cyperus iria (Ci) = test system: Cyperus iria (Ci)
Excerpt: as §1, §2, §3, §4

[2] = test system: Echinochloa colonum (Ecc)
Excerpt: as §1, §2, §3, §4

[3] = test system: Echinochloa crus-galli (Ecg)
Excerpt: as §1, §2, §3, §4

[4] = test system: Echinochloa oryzicola (Eor)
Excerpt: as §1, §2, §3, §4

[5] = test system: Echinochloa oryzoides (Eoz)
Excerpt: as §1, §2, §3, §4

Heteranthera limosa (Hl) = test system: Heteranthera limosa (Hl)
Excerpt: as §1, §2, §3, §4

[6] = test system: Leptochloa fascicularis (Li)
Excerpt: as §1, §2, §3, §4

[7] = test system: Monochoria vaginalis (Mv)
Excerpt: as §1, §2, §3, §4

Scirpus mucronatus (Sm) = test system: Scirpus mucronatus (Sm)
Excerpt: as §1, §2, §3, §4

[8] = test system: Sphenoclea zeylanica (Sz)
Excerpt: as §1, §2, §3, §4

[9] = test system: direct-seeded rice seedlings (Oryza saliva cv. 'Japonica—M202'; Oss)
Excerpt: as §1, §2, §3, §4

[10] = test system: transplanted rice seedlings (Oryza sativa cv. 'Japonica—M202'; Ost)
Excerpt: as §1, §2, §3, §4

For NC1=C(Cl)C(=O)c2ccccc2C1=O [quinoclamine, reference compound], the “Obs. (observed effect) Ap” value [1] was 60, the “Obs. (observed effect) Aa” value (Ammania auriculata (Aa)) was 0 and the “Obs. (observed effect) Cd” value (Cyperus difformis (Cd)) was 35. For the same molecule, the “Obs. (observed effect) Ci” value (Cyperus iria (Ci)) was 0, the “Obs. (observed effect) Ecc” value [2] was 0 and the “Obs. (observed effect) Ecg” value [3] was 0. The “Obs. (observed effect) Eor” value [4] was 30, the “Obs. (observed effect) Eoz” value [5] was 0 and the “Obs. (observed effect) Hl” value (Heteranthera limosa (Hl)) was 0. The “Obs. (observed effect) Lf” value [6] was 0, the “Obs. (observed effect) Mv” value [7] was 0 and the “Obs. (observed effect) Sm” value (Scirpus mucronatus (Sm)) was 0. The “Obs. (observed effect) Sz” value [8] was 0, the “Obs. (observed effect) Oss” value [9] was 0 and the “Obs. (observed effect) Ost” value [10] was 0.
